Experimental data published in patent US20100298141A1, “SUBSTITUTED PYRIDINE N-OXIDE HERBICIDES” (E. I. DU PONT DE NEMOURS AND COMPANY, priority 2007, published 2010).

Columns and labels:
[1] = test system: morningglory; experiment: Test A pre-/postemergence greenhouse test; assay type: in vivo, Ipomoea spp.; settings: for Morningglory plant response rating: 0 to 100 scale; for Plant response rating, Morningglory: 0 to 100 scale where 0 is no effect and 100 is complete control
Method in brief: (§1)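 Untreated controls served as the reference for visual injury ratings taken about ten days after spraying. The non-phytotoxic solvent/surfactant formulation was applied preemergence to seeded loam and sand and postemergence to plants two to ten cm high.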

[2] = test system: redroot pigweed; experiment: Test A pre-/postemergence greenhouse test; assay type: in vivo, Amaranthus retroflexus; settings: for Pigweed plant response rating: 0 to 100 scale; for Plant response rating, Pigweed: 0 to 100 scale where 0 is no effect and 100 is complete control
Method in brief: as §1

[3] = test system: corn; experiment: Test A pre-/postemergence greenhouse test; assay type: in vivo, Zea mays; settings: for Corn plant response rating: 0 to 100 scale; for Plant response rating, Corn: 0 to 100 scale where 0 is no effect and 100 is complete control
Method in brief: as §1

[4] = test system: Italian ryegrass; experiment: Test C pre-/postemergence test; assay type: in vivo, Lolium multiflorum; settings: Preemergence; for Ryegrass, Italian plant response rating: 62 g ai/ha, scale 0 to 100; for Plant response rating, Ryegrass, Italian: 31 g ai/ha, scale 0 to 100 (0 no effect, 100 complete control)
Method in brief: (§2)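 Seeds were planted and treated preemergence with test chemical in a non-phytotoxic solvent mixture containing surfactant. Postemergence applications of the same formulation went onto plants 2 to 18 cm tall (1- to 4-leaf stage). A dash marks no test result.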

[5] = test system: wheat; experiment: Test C pre-/postemergence test; assay type: in vivo, Triticum aestivum; settings: Preemergence; for Wheat plant response rating: 62 g ai/ha, scale 0 to 100; for Plant response rating, Wheat: 31 g ai/ha, scale 0 to 100 (0 no effect, 100 complete control)
Method in brief: as §2

[6] = test system: wild oat; experiment: Test C pre-/postemergence test; assay type: in vivo, Avena fatua; settings: Preemergence; for Oat, Wild plant response rating: 62 g ai/ha, scale 0 to 100; for Plant response rating, Oat, Wild: 31 g ai/ha, scale 0 to 100 (0 no effect, 100 complete control)
Method in brief: as §2

[7] = test system: bermudagrass; experiment: Test C pre-/postemergence test; assay type: in vivo, Cynodon dactylon; settings: for Plant response rating, Bermudagrass: 31 g ai/ha; for Plant response rating (0 to 100), Bermudagrass: 250 g ai/ha
Method in brief: as §2

[8] = test system: cocklebur; experiment: Test C pre-/postemergence test; assay type: in vivo, Xanthium strumarium; settings: for Plant response rating, Cocklebur: 31 g ai/ha, scale 0 to 100 (0 no effect, 100 complete control); for Plant response rating (0 to 100), Cocklebur: 250 g ai/ha
Method in brief: as §2

[9] = test system: corn; experiment: Test C pre-/postemergence test; assay type: in vivo, Zea mays; settings: for Plant response rating, Corn: 31 g ai/ha, scale 0 to 100 (0 no effect, 100 complete control); for Plant response rating (0 to 100), Corn: 250 g ai/ha
Method in brief: as §2

[10] = test system: giant foxtail; experiment: Test C pre-/postemergence test; assay type: in vivo, Setaria faberii; settings: Preemergence; for Foxtail, Giant plant response rating: 62 g ai/ha, scale 0 to 100; for Plant response rating, Foxtail, Giant: 31 g ai/ha, scale 0 to 100 (0 no effect, 100 complete control)
Method in brief: as §2

[11] = test system: johnsongrass; experiment: Test C pre-/postemergence test; assay type: in vivo, Sorghum halepense; settings: Preemergence; for Johnsongrass plant response rating: 62 g ai/ha, scale 0 to 100; for Plant response rating, Johnsongrass: 31 g ai/ha, scale 0 to 100 (0 no effect, 100 complete control); for Plant response rating (0 to 100), Johnsongrass: 250 g ai/ha
Method in brief: as §2

[12] = test system: kochia; experiment: Test C pre-/postemergence test; assay type: in vivo, Kochia scoparia; settings: Preemergence; for Plant response rating, Kochia: 31 g ai/ha, scale 0 to 100 (0 no effect, 100 complete control)
Method in brief: as §2

[13] = test system: morningglory; experiment: Test C pre-/postemergence test; assay type: in vivo, Ipomoea coccinea; settings: Preemergence; for Morningglory plant response rating: 62 g ai/ha, scale 0 to 100; for Plant response rating, Morningglory: 31 g ai/ha, scale 0 to 100 (0 no effect, 100 complete control)
Method in brief: as §2

[14] = test system: eastern black nightshade; experiment: Test C pre-/postemergence test; assay type: in vivo, Solanum ptycanthum; settings: Preemergence; for Nightshade plant response rating: 62 g ai/ha, scale 0 to 100; for Plant response rating, Nightshade: 31 g ai/ha, scale 0 to 100 (0 no effect, 100 complete control)
Method in brief: as §2

[15] = test system: yellow nutsedge; experiment: Test C pre-/postemergence test; assay type: in vivo, Cyperus esculentus; settings: Preemergence; for Nutsedge, Yellow plant response rating: 62 g ai/ha, scale 0 to 100; for Plant response rating, Nutsedge, Yellow: 31 g ai/ha, scale 0 to 100 (0 no effect, 100 complete control)
Method in brief: as §2

[16] = test system: common (oilseed) sunflower; experiment: Test C pre-/postemergence test; assay type: in vivo, Helianthus annuus; settings: Preemergence; for Sunflower plant response rating: 62 g ai/ha, scale 0 to 100; for Plant response rating, Sunflower: 31 g ai/ha, scale 0 to 100 (0 no effect, 100 complete control)
Method in brief: as §2

[17] = test system: rice; experiment: Test C flooded paddy test; assay type: in vivo, Oryza sativa; settings: Flood
Method in brief: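 Under a constant 3 cm flood, test compounds went directly into the paddy water. Following 13 to 15 days of greenhouse growth, treated species and controls were compared by eye.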

[18] = Postemergence, 125 g ai/ha, 0 is no effect, 100 is complete control
[19] = Postemergence, 500 g ai/ha, 0 is no effect, 100 is complete control
[20] = Preemergence, 125 g ai/ha, 0 no effect, 100 complete control
[21] = 62 g ai/ha, Preemergence, scale 0 to 100 (0 no effect, 100 complete control)
[22] = Preemergence, scale 0 to 100 (0 no effect, 100 complete control)
[23] = preemergence, 125 g ai/ha, scale 0 (no effect) to 100 (complete control)
[24] = 62 g ai/ha, Preemergence, scale 0 to 100
[25] = 31 g ai/ha, scale 0 to 100 (0 no effect, 100 complete control)
[26] = 62 g ai/ha, scale 0 to 100, 0 no effect, 100 complete control, 13 to 15 days
[27] = 125 g ai/ha, scale 0 to 100, 0 no effect, 100 complete control, 13 to 15 days
[28] = 250 g ai/ha, scale 0 to 100 (0 no effect, 100 complete control)

SMILES: Cc1cc[n+]([O-])c(S(=O)(=O)Cc2c(C(F)(F)F)nn(C)c2Cl)c1 [Compound 19]
- Morningglory plant response rating [1, 18]: 20
- Morningglory plant response rating [1, 19]: 30
- Morningglory plant response rating [1, 20]: 60
- Plant response rating, Morningglory ([1]; Preemergence, 500 g ai/ha): 80
- Pigweed plant response rating [2, 18]: 10
- Pigweed plant response rating [2, 19]: 30
- Pigweed plant response rating [2, 20]: 100
- Plant response rating, Pigweed ([2]; Preemergence, 500 g ai/ha): 100
- Corn plant response rating [3, 18]: 0
- Corn plant response rating [3, 19]: 50
- Corn plant response rating [3, 20]: 30
- Plant response rating, Corn ([3]; Preemergence, 500 g ai/ha): 50
- Ryegrass, Italian plant response rating [4]: 30
- Plant response rating, Ryegrass, Italian [4]: 0
- Wheat plant response rating [5]: 0
- Plant response rating, Wheat [5]: 0
- Oat, Wild plant response rating [6]: 0
- Plant response rating, Oat, Wild [6]: 0
- Bermudagrass plant response rating [7, 21]: 100
- Plant response rating, Bermudagrass [7, 22]: 85
- Plant response rating (0 to 100), Bermudagrass ([7]; Preemergence): 100
- Bermudagrass plant response rating [7, 23]: 100
- Cocklebur plant response rating [8, 24]: 0
- Plant response rating, Cocklebur ([8]; Preemergence): 0
- Plant response rating (0 to 100), Cocklebur ([8]; Preemergence): 30
- Cocklebur plant response rating [8, 23]: 0
- Corn plant response rating [9, 24]: 40
- Plant response rating, Corn ([9]; Preemergence): 0
- Plant response rating (0 to 100), Corn ([9]; Preemergence): 70
- Corn plant response rating [9, 23]: 40
- Foxtail, Giant plant response rating [10]: 100
- Plant response rating, Foxtail, Giant [10]: 100
- Plant response rating (0 to 100), Foxtail, Giant ([10]; 250 g ai/ha): 100
- Johnsongrass plant response rating [11]: 80
- Plant response rating, Johnsongrass [11]: 10
- Plant response rating (0 to 100), Johnsongrass [11]: 100
- Kochia plant response rating ([12]; 62 g ai/ha, scale 0 to 100): 100
- Plant response rating, Kochia [12]: 0
- Morningglory plant response rating [13]: 60
- Plant response rating, Morningglory [13]: 0
- Nightshade plant response rating [14]: 100
- Plant response rating, Nightshade [14]: 85
- Nutsedge, Yellow plant response rating [15]: 70
- Plant response rating, Nutsedge, Yellow [15]: 40
- Sunflower plant response rating [16]: 0
- Plant response rating, Sunflower [16]: 0
- Plant response rating, Rice [17, 25]: 0
- Plant response rating, Rice [17, 26]: 0
- Plant response rating, Rice [17, 27]: 30
- Plant response rating, Rice [17, 28]: 70

SMILES: Cn1nc(C(F)(F)F)c(CS(=O)(=O)c2cc(C(C)(C)C)cc[n+]2[O-])c1OC(F)F [Compound 25]
- Morningglory plant response rating [1, 18]: 10
- Morningglory plant response rating [1, 19]: 60
- Morningglory plant response rating [1, 20]: 0
- Plant response rating, Morningglory ([1]; Preemergence, 500 g ai/ha): 80
- Pigweed plant response rating [2, 18]: 30
- Pigweed plant response rating [2, 19]: 40
- Pigweed plant response rating [2, 20]: 100
- Plant response rating, Pigweed ([2]; Preemergence, 500 g ai/ha): 100
- Corn plant response rating [3, 18]: 0
- Corn plant response rating [3, 19]: 20
- Corn plant response rating [3, 20]: 0
- Plant response rating, Corn ([3]; Preemergence, 500 g ai/ha): 60
- Ryegrass, Italian plant response rating [4]: 0
- Plant response rating, Ryegrass, Italian [4]: 0
- Wheat plant response rating [5]: 20
- Plant response rating, Wheat [5]: 0
- Oat, Wild plant response rating [6]: 85
- Plant response rating, Oat, Wild [6]: 0
- Bermudagrass plant response rating [7, 21]: 100
- Plant response rating, Bermudagrass [7, 22]: 75
- Plant response rating (0 to 100), Bermudagrass ([7]; Preemergence): 100
- Bermudagrass plant response rating [7, 23]: 100
- Cocklebur plant response rating [8, 24]: 0
- Plant response rating, Cocklebur ([8]; Preemergence): 0
- Plant response rating (0 to 100), Cocklebur ([8]; Preemergence): 0
- Cocklebur plant response rating [8, 23]: 0
- Corn plant response rating [9, 24]: 20
- Plant response rating, Corn ([9]; Preemergence): 0
- Plant response rating (0 to 100), Corn ([9]; Preemergence): 60
- Corn plant response rating [9, 23]: 60
- Foxtail, Giant plant response rating [10]: 85
- Plant response rating, Foxtail, Giant [10]: 40
- Johnsongrass plant response rating [11]: 98
- Plant response rating, Johnsongrass [11]: 70
- Plant response rating (0 to 100), Johnsongrass [11]: 100
- Plant response rating, Kochia [12]: 0
- Morningglory plant response rating [13]: 50
- Plant response rating, Morningglory [13]: 0
- Nightshade plant response rating [14]: 100
- Plant response rating, Nightshade [14]: 100
- Nutsedge, Yellow plant response rating [15]: 80
- Plant response rating, Nutsedge, Yellow [15]: 0
- Sunflower plant response rating [16]: 0
- Plant response rating, Sunflower [16]: 0
- Plant response rating, Rice [17, 25]: 0
- Plant response rating, Rice [17, 26]: 0
- Plant response rating, Rice [17, 27]: 65
- Plant response rating, Rice [17, 28]: 75
